Values after ≈ are worked out from the molar mass of the structure shown. Like-named read-outs stand apart in the source and are kept apart here.
What was measured:
HIV-1(IIIB) = experiment: Knock-out concentrations: breakthrough of HIV-1(IIIB)-induced cytopathicity in CEM cell cultures; format: cell-based; conditions: for activity at 0.1 µg/mL / activity at 0.5 µg/mL / activity at 2.5 µg/mL: Human immunodeficiency virus 1, IIIB, CCRF-CEM, read-out: HIV-1-induced cytopathicity in cell culture; for activity at 0.1 µg/mL: 0.1 μg/ml; for activity at 0.5 µg/mL: 0.5 μg/ml; for activity at 2.5 µg/mL: 2.5 μg/ml
Protocol: The culture medium consisted of RPMI 1640 containing 10% fetal bovine serum, 2 mM L-glutamine, and 0.075% NaHCO3. The multiplicity of the initial infection was ~1000 times the CCID50 (50% cell culture infective dose). Passages were performed every 3 to 4 days by adding 0.5 to 1.0 ml of the infected culture supernatant to 5 ml of a suspension containing 4×10^5 uninfected CEM cells per ml. Syncytium formation was used as a parameter of virus breakthrough in the cell cultures. In the drug combination experiments, the compounds were combined at the same initial concentrations as used for the two lowest concentrations in the single-drug experiments.
The drug concentrations were kept constant throughout the whole time period of the experiment (10 subcultivations or 35 days). Then the drugs were removed from the cell cultures, and the cells were further subcultured for at least 5 additional passages.

HIV-1/III(0.1) 103-Asn = experiment: Sensitivity of mutant HIV-1 strain in CEM cell cultures; format: cell-based; conditions: Human immunodeficiency virus 1, CCRF-CEM; Table 5; read-out: EC50
Procedure, shortened: (§1)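 Infect CEM cells (250,000 cells per ml) with virus at 100 CCID50/ml; add infected suspension to wells holding diluted compound; incubate 4 days, 37° C.; examine for syncytia.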

HIV-1/II(0.1) 100-Ile = experiment: as above; format: cell-based; conditions: Human immunodeficiency virus 1, CCRF-CEM; Table 5; read-out: EC50
Procedure, shortened: as §1

HIV-1/Nev (106-Ala) = experiment: as above; format: cell-based; conditions: Human immunodeficiency virus 1, CCRF-CEM; CEM cells, Table 1; read-out: 50% Effective Concentration
Procedure, shortened: as §1

HIV-1/Pyr (181-Cys) = experiment: as above; format: cell-based; conditions: Human immunodeficiency virus 1, CCRF-CEM; CEM cells, Table 1; read-out: 50% Effective Concentration
Procedure, shortened: as §1

[1] = tested on: HIV-1/V(0.1) 101-Ile + 141-Glu; experiment: as above; format: cell-based; conditions: Human immunodeficiency virus 1, CCRF-CEM; Table 5; read-out: EC50
Procedure, shortened: as §1

HIV-1/I(0.1) 103-Asn = experiment: as above; format: cell-based; conditions: Human immunodeficiency virus 1, CCRF-CEM; Table 5; read-out: EC50
Procedure, shortened: as §1

[2] = tested on: HIV-1/TIBO R82913 (103-Asn); experiment: as above; format: cell-based; conditions: Human immunodeficiency virus 1, CCRF-CEM; CEM cells, Table 1; read-out: 50% Effective Concentration
Procedure, shortened: as §1

[3] = tested on: HIV-1/TSAO-m^3 T (138-Lys); experiment: as above; format: cell-based; conditions: Human immunodeficiency virus 1, CCRF-CEM; CEM cells, Table 1; read-out: 50% Effective Concentration
Procedure, shortened: as §1

[4] = tested on: HIV-1/TIBO R82150 (100-Ile); experiment: as above; format: cell-based; conditions: Human immunodeficiency virus 1, CCRF-CEM; CEM cells, Table 1; read-out: 50% Effective Concentration
Procedure, shortened: as §1

HIV-1/V(0.5) 103-Asn = experiment: as above; format: cell-based; conditions: Human immunodeficiency virus 1, CCRF-CEM; Table 5; read-out: EC50
Procedure, shortened: as §1

HIV-1(IIIB) (WT) = experiment: microbe, parasite or virus in culture; format: cell-based; conditions: Human immunodeficiency virus 1, IIIB, CCRF-CEM
Procedure, shortened: as §1

HIV-1 RT (WT) = HIV-1 RT (WT) (Human immunodeficiency virus type 1 group M subtype B, UniProt P03366); experiment: biochemical
Protocol: The reaction mixture (50 μl) contained 50 mM Tris.HCl, pH 7.8, 5 mM dithiothreitol, […] glutathione, 500 μM EDTA, 150 mM KCl, 5 mM MgCl2, 1.25 μg of bovine serum albumin, a fixed concentration of the labeled substrate [2,8-^3 H]dGTP (2.95 μM, 2 μCi), a fixed concentration of the template/primer poly(C).oligo(dG) (0.1 mM), 0.06% Triton X-100, 5 μl of inhibitor solution [containing various concentrations (5-fold dilutions) of the test compounds], and 5 μl of the RT preparation. The reaction mixtures were incubated at 37° C. for 30 min, at which time 100 μl of calf thymus DNA (150 μg/ml), 2 ml of Na4 P2 07 (0.1 M in 1M HCl), and 2 ml of trichloroacetic acid (10%, v/v) were added. The solutions were kept on ice for 30 min, after which the acid-insoluble material was washed and analyzed for radioactivity.
Compounds I, III, IV and V were evaluated for their inhibitory effect on recombinant HIV-1 RT.

[5] = 936 h, day 39 post infection, compound absent from day 35
[6] = 1008 h, day 42 post infection, compound absent from day 35
[7] = 1104 h, day 46 post infection, compound absent from day 35
[8] = 1176 h, day 49 post infection, compound absent from day 35
[9] = 1272 h, day 53 post infection, compound absent from day 35

`O=C(OC1CCCCC1)c1cc(NC(=S)c2ccsc2)ccc1Cl` [Compound V] was tested, and the “prevention of virus breakthrough, fold more efficient than BHAP” value (HIV-1(IIIB)) was “at least 5 fold”, the “prevention of virus breakthrough, fold more efficient than nevirapine” value (HIV-1(IIIB)) was no less than 25 fold and the activity at 0.1 µg/mL (HIV-1(IIIB); 96 h, day 4 post infection) was 0%. For the same compound, the activity at 0.5 µg/mL (HIV-1(IIIB); 96 h, day 4 post infection) was 0%, the activity at 2.5 µg/mL (HIV-1(IIIB); 96 h, day 4 post infection) was 0% and the activity at 0.1 µg/mL (HIV-1(IIIB); 192 h, day 8 post infection) was 37.5%. The activity at 0.5 µg/mL (HIV-1(IIIB); 192 h, day 8 post infection) was 0%, the activity at 2.5 µg/mL (HIV-1(IIIB); 192 h, day 8 post infection) was 0% and the activity at 0.1 µg/mL (HIV-1(IIIB); 264 h, day 11 post infection) was 50%. For the same compound, the activity at 0.5 µg/mL (HIV-1(IIIB); 264 h, day 11 post infection) was 0%, the activity at 2.5 µg/mL (HIV-1(IIIB); 264 h, day 11 post infection) was 0% and the activity at 0.1 µg/mL (HIV-1(IIIB); 336 h, day 14 post infection) was 100%. It also gave an activity at 0.5 µg/mL (HIV-1(IIIB); 336 h, day 14 post infection) of 18.5%, an activity at 2.5 µg/mL (HIV-1(IIIB); 336 h, day 14 post infection) of 0% and an activity at 0.1 µg/mL (HIV-1(IIIB); 408 h, day 17 post infection) of 100%. The activity at 0.5 µg/mL (HIV-1(IIIB); 408 h, day 17 post infection) was 75%, the activity at 2.5 µg/mL (HIV-1(IIIB); 408 h, day 17 post infection) was 0% and the activity at 0.1 µg/mL (HIV-1(IIIB); 504 h, day 21 post infection) was 100%. It also gave an activity at 0.5 µg/mL (HIV-1(IIIB); 504 h, day 21 post infection) of 100%, an activity at 2.5 µg/mL (HIV-1(IIIB); 504 h, day 21 post infection) of 0% and an activity at 0.1 µg/mL (HIV-1(IIIB); 600 h, day 25 post infection) of 100%. The activity at 0.5 µg/mL (HIV-1(IIIB); 600 h, day 25 post infection) was 100%, the activity at 2.5 µg/mL (HIV-1(IIIB); 600 h, day 25 post infection) was 0% and the activity at 0.1 µg/mL (HIV-1(IIIB); 672 h, day 28 post infection) was 100%. It also gave an activity at 0.5 µg/mL (HIV-1(IIIB); 672 h, day 28 post infection) of 100%, an activity at 2.5 µg/mL (HIV-1(IIIB); 672 h, day 28 post infection) of 0% and an activity at 0.1 µg/mL (HIV-1(IIIB); 768 h, day 32 post infection) of 100%. The activity at 0.5 µg/mL (HIV-1(IIIB); 768 h, day 32 post infection) was 100%, the activity at 2.5 µg/mL (HIV-1(IIIB); 768 h, day 32 post infection) was 0% and the activity at 0.1 µg/mL (HIV-1(IIIB); 840 h, day 35 post infection) was 100%. It also gave an activity at 0.5 µg/mL (HIV-1(IIIB); 840 h, day 35 post infection) of 100%, an activity at 2.5 µg/mL (HIV-1(IIIB); 840 h, day 35 post infection) of 0% and an activity at 0.1 µg/mL (HIV-1(IIIB); [5]) of 100%. For the same compound, the activity at 0.5 µg/mL (HIV-1(IIIB); [5]) was 100%, the activity at 2.5 µg/mL (HIV-1(IIIB); [5]) was 0% and the activity at 0.1 µg/mL (HIV-1(IIIB); [6]) was 100%. For the same compound, the activity at 0.5 µg/mL (HIV-1(IIIB); [6]) was 100%, the activity at 2.5 µg/mL (HIV-1(IIIB); [6]) was 0% and the activity at 0.1 µg/mL (HIV-1(IIIB); [7]) was 100%. It also gave an activity at 0.5 µg/mL (HIV-1(IIIB); [7]) of 100%, an activity at 2.5 µg/mL (HIV-1(IIIB); [7]) of 0% and an activity at 0.1 µg/mL (HIV-1(IIIB); [8]) of 100%. The activity at 0.5 µg/mL (HIV-1(IIIB); [8]) was 100%, the activity at 2.5 µg/mL (HIV-1(IIIB); [8]) was 0% and the activity at 0.1 µg/mL (HIV-1(IIIB); [9]) was 100%. The activity at 0.5 µg/mL (HIV-1(IIIB); [9]) was 100%, the activity at 2.5 µg/mL (HIV-1(IIIB); [9]) was 0% and the “concentration at which virus emerged (virus breakthrough)” value (HIV-1(IIIB); tested at 0.1, 0.5 and 2.5 μg/ml, 35 days) was 0.5 µg/mL. It also gave an EC50 (HIV-1/III(0.1) 103-Asn) of 0.35 µg/mL (≈ 0.921 µM), an EC50 (HIV-1/II(0.1) 100-Ile) of no less than 5 µg/mL and an EC50 (HIV-1/Nev (106-Ala)) of 0.073 µg/mL (≈ 0.192 µM). For the same compound, the EC50 (HIV-1/Pyr (181-Cys)) was 0.077 µg/mL (≈ 0.203 µM), the EC50 [1] was 0.3 µg/mL (≈ 0.79 µM) and the EC50 (HIV-1/I(0.1) 103-Asn) was 1.75 µg/mL (≈ 4.61 µM). For the same compound, the EC50 [2] was greater than 1 µg/mL, the EC50 [3] was 0.075 µg/mL (≈ 0.197 µM) and the EC50 [4] was 0.85 µg/mL (≈ 2.24 µM). The EC50 (HIV-1/V(0.5) 103-Asn) was no less than 5 µg/mL, the EC50 (HIV-1(IIIB) (WT); CEM cells, Table 1, read-out: 50% Effective Concentration) was 0.03 µg/mL (≈ 0.079 µM) and the EC50 (HIV-1(IIIB) (WT); HIV-1 (III8), Table 5, read-out: EC50) was 0.03 µg/mL (≈ 0.079 µM). For the same compound, the IC50 (HIV-1(IIIB) (WT); range stated for Compounds I-V together, read-out: 50% inhibitory concentration, HIV-1(IIIB) replication in CEM cells) was 0.004 to 0.05 µg/mL (≈ 0.0105 to 0.132 µM), the IC50 (HIV-1 RT (WT); range stated for the compounds together, poly(C).oligo(dG), 2.95 μM [2,8-3H]dGTP, read-out: IC50 on recombinant HIV-1 RT) was 47.4 to 203 nM and the IC50 (HIV-1 RT (WT); substrate [2,8-3H]dGTP 2.95 μM, template poly(rC)oligo(dG), read-out: IC50, anti-HIV-1 RT (WT) activity (converted)) was 203 nM.

— patent US5968910A, “Compositions containing two or three inhibitors of different HIV reverse transcriptases” (priority 1994, dated 1999)
